From US6787570B2, “Substituted N-cycloalkyl-N-benzyl aminoalcohol compounds useful for inhibiting cholesteryl ester transfer protein activity” (Pfizer, Inc., priority 1999, dated 2004)

Target: T1, Human recombinant CETP (Homo sapiens, UniProt P11597)
T1 construct: made in house; host or cells: CHO cells (serum-free conditioned medium)
T1 sequence (P11597 18-493): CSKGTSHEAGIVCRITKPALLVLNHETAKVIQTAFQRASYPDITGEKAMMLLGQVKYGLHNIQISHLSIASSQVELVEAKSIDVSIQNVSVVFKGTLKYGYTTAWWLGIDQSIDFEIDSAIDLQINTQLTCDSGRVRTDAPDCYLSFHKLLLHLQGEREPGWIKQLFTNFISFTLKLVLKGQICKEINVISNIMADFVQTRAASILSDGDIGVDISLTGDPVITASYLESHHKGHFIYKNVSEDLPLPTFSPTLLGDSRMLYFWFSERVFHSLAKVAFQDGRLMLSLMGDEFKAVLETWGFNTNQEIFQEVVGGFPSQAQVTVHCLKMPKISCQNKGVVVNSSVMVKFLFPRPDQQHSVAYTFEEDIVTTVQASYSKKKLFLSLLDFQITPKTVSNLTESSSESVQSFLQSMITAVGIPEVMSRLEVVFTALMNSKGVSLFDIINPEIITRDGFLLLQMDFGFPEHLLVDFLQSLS
Experiment: Assay of CETP Inhibition Using Purified Components (Reconstituted Buffer Assay)
Format: biochemical
Conditions: transfer of [3H]CE from HDL to LDL, 2 hours at 37° C.
Description: Assay of CETP Inhibition Using Purified Components (Reconstituted Buffer Assay)
The ability of compounds to inhibit CETP activity was assessed using an in vitro assay that measured the rate of transfer of radiolabeled cholesteryl ester ([^3H]CE) from HDL donor particles to LDL acceptor particles. Details of the assay are provided by Glenn, K. C. et al. (Glenn and Melton, “Quantification of Cholesteryl Ester Transfer Protein (CETP): A) CETP Activity and B) Immunochemical Assay of CETP Protein,” Meth. Enzymol., 263, 339-351 (1996)). Human recombinant CETP can be obtained from the serum-free conditioned medium of CHO cells transfected with a cDNA for CETP and purified as described by Wang, S. et al. (J. Biol. Chem. 267, 17487-17490 (1992)). To measure CETP activity, [^3H]CE-labeled-HDL, LDL, CETP and assay buffer (50 mM tris(hydroxymethyl)aminomethane, pH 7.4; 150 mM sodium chloride; 2 mM ethylenediamine-tetraacetic acid (EDTA); 1% bovine serum albumin) were incubated in a final volume of 200 μL, for 2 hours at 37° C. in 96 well plates. Inhibitors were included in the assay by diluting from a 10 mM DMSO stock solution into 16% (v/v) aqueous DMSO so that the final concentration of inhibitor was 800 μM. The inhibitors were then diluted 1:1 with CETP in assay buffer, and then 25 μL of that solution was mixed with 175 μL of lipoprotein pool for assay. Following incubation, LDL was differentially precipitated by the addition of 50 μL of 1% (w/v) dextran sulfate/0.5 M magnesium chloride, mixed by vortex, and incubated at room temperature for 10 minutes. A potion of the solution (200 μL) was transferred to a filter plate (Millipore). After filtration, the radioactivity present in the precipitated LDL was measured by liquid scintillation counting. […] The rate of [^3H]CE transfer using this assay was linear with respect to time and CETP concentration, up to 25-30% of [^3H]CE transferred.
The potency of test compounds was determined by performing the above described assay in the presence of varying concentrations of the test compounds and determining the concentration required for 50% inhibition of transfer of [3H]CE from HDL to LDL. This value was defined as the IC50. The IC50 values determined from this assay are accurate when the IC50 is greater than 10 nM.

Row | SMILES | IC50 [µM]
1 | CCCN(Cc1cccc(OC(F)(F)F)c1)CC(O)C(F)(F)F (stereo not drawn) [Example 6] | > 100
2 | OC(CN(Cc1cccc(OC(F)(F)F)c1)C1CC1)C(F)(F)F (stereo not drawn) [Example 4] | 20
3 | CC(C)=CCN(CC(O)C(F)(F)F)c1cccc(OC(F)(F)F)c1 (stereo not drawn) [Example 8] | 45
4 | C#CCN(CC(O)C(F)(F)F)c1cccc(OC(F)(F)F)c1 (stereo not drawn) [Example 10] | 50
5 | CCCCCC=CCN(CC(O)C(F)(F)F)c1cccc(OC(F)(F)F)c1 (stereo not drawn) [Example 9] | 18
6 | CC1CCC(N(Cc2cccc(C(F)(F)F)c2)CC(O)C(F)(F)F)CC1 (stereo not drawn) [Example 1, 3-[(4-methylcyclohexyl)[[(3-trifluoromethyl)phenyl]methyl]amino]-1,1,1-trifluoro-2-propanol] | 15
7 | CC(C)N(Cc1cccc(OC(F)(F)F)c1)CC(O)C(F)(F)F (stereo not drawn) [Example 5] | > 100

Further lines, results first:

Row | IC50 [µM] | SMILES
8 | > 100 | OC(CN(Cc1ccccc1)CC(O)C(F)(F)F)C(F)(F)F (stereo not drawn) [Example 15, 1,1′-[(Phenylmethyl)imino]bis[3,3,3-trifluoro-2-propanol]]
9 | 80 | COC(=O)C=CCN(CC(O)C(F)(F)F)c1cccc(OC(F)(F)F)c1 (stereo not drawn) [Example 13]
10 | 60 | OC(CN(Cc1ccc(OC(F)(F)F)cc1)CC(O)C(F)(F)F)C(F)(F)F (stereo not drawn) [Example 17]
11 | 15 | OC(CN(Cc1cccc(C(F)(F)F)c1)CC(O)C(F)(F)F)C(F)(F)F (stereo not drawn) [Example 16]
12 | 55 | COCC=CCN(CC(O)C(F)(F)F)c1cccc(OC(F)(F)F)c1 (stereo not drawn) [Example 14]
13 | 11 | CCc1cc(Oc2cccc(N(CC3CCCCC3)CC(O)C(F)(F)F)c2)ccc1Cl (stereo not drawn) [Example 18, 3-[[3-(4-chloro-3-ethylphenoxy)phenyl][3-cyclohexylmethyl]amino]-1,1,1-trifluoro-2-propanol]
14 | 60 | C=C(CN(CC(O)C(F)(F)F)c1cccc(OC(F)(F)F)c1)C(=O)OC (stereo not drawn) [Example 12]
15 | 45 | CC(C)CCN(CC(O)C(F)(F)F)c1cccc(OC(F)(F)F)c1 (stereo not drawn) [Example 11]
